Assay results published in ChEMBL document CHEMBL5335856, “Structurally Diverse Alkaloids with Anti-Renal-Fibrosis Activity from the Centipede Scolopendra subspinipes mutilans” (J Nat Prod, 2024).
Calls of active or inactive are those of the source.

Key:
Assay type in all cases: functional, cell-based
RAW264.7 [1] = assay: Antiinflammatory activity against LPS-induced mouse RAW264.7 cells assessed as reduction in iNOS protein level at 20 uM
NRK-52E [2] = assay: Anti-renal-fibrosis activity in TGF-beta1 induced rat NRK-52E cells assessed as downregulation of alpha-SMA protein level at 20 uM by Western blot analysis
NRK-52E [3] = assay: Anti-renal-fibrosis activity in TGF-beta1 induced rat NRK-52E cells assessed as downregulation of fibronectin protein level at 20 uM by Western blot analysis
NRK-52E [4] = assay: Anti-renal-fibrosis activity in TGF-beta1 induced rat NRK-52E cells assessed as downregulation of collagen I protein level at 20 uM by Western blot analysis
RAW264.7 [5] = assay: Antiinflammatory activity against LPS-induced mouse RAW264.7 cells assessed as reduction in COX-2 protein level at 20 uM

Measured: Activity

COc1cc(=O)[nH]c2c(OC)cccc12
active: RAW264.7 [1] | NRK-52E [2] | NRK-52E [3] | NRK-52E [4] | RAW264.7 [5]

COc1c(O)cnc2c(O)cccc12
active: RAW264.7 [1] | RAW264.7 [5]

Oc1cnc2c(O)cccc2c1
active: RAW264.7 [1] | RAW264.7 [5]

N=C(N)N1CCC[C@H]1c1ccc2cc(O)cnc2c1O
active: RAW264.7 [1] | RAW264.7 [5]

COc1c(O)c(=O)n(C)c2c(O)cccc12
active: RAW264.7 [1] | NRK-52E [2] | NRK-52E [3] | NRK-52E [4] | RAW264.7 [5]

COc1cc(=O)n(C)c2c(O)cccc12
active: RAW264.7 [1] | NRK-52E [2] | NRK-52E [3] | NRK-52E [4] | RAW264.7 [5]
